Key:
mmPDE10A7 [1] = biological target: T1, mmPDE10A7 (Mus musculus, UniProt Q8CA95, M75I); test: IMAP fluorescence polarization compound inhibition assay; assay type: biochemical; settings: recombinant mmPDE10A7 in sf9 cell lysate
T1 construct: Full-length mmPDE10A7 cDNA cloned in the pENTR vector was recombined to pDEST™8; made in house; host or cells: Sf9 insect cells (baculovirus, pDEST8 / DH10BAC); used as crude cell lysate supernatant, dialysed for IMAP
T1 sequence (Q8CA95 with tags, fused parts or gaps M75I): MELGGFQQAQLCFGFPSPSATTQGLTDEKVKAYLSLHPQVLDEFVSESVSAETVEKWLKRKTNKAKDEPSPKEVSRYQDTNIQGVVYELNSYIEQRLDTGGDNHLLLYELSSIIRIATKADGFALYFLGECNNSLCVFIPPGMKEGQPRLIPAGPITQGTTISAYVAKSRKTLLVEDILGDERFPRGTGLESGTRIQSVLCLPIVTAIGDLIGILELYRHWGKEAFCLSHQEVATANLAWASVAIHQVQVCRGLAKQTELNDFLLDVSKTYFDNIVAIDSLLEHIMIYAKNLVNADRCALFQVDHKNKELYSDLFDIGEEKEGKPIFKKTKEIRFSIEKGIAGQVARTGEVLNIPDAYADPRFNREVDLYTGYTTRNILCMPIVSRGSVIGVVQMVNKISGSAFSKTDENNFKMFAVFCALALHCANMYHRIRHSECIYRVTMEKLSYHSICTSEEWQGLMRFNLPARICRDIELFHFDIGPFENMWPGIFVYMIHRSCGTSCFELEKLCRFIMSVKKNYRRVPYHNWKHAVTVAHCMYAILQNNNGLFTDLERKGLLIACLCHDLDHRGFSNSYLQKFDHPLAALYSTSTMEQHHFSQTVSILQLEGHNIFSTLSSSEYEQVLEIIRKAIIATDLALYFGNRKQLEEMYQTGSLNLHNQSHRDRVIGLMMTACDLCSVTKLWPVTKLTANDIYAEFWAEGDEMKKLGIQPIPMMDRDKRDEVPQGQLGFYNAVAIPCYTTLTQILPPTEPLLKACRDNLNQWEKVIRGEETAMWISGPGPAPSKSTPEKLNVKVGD
From the text: (§1) Full-length mmPDE10A7 cDNA cloned in the pENTR vector was recombined to pDEST™8 by clonase in DH5α competent bacteria (Invitrogen). DH10BAC, the competent bacteria containing baculovirus genome, was then transformed with the pDEST™8-mmPDE10A7. The white colonies were selected in the presence of gentamicin, kanamycin, tetracycline, Bluogal and IPTG and were confirmed by PCR. Log-phase sf9 cells were then transfected with recombinant baculovirus DNA by the method of Cellfectin in a 6-well plate. Forty-eight to seventy-two hours after the transfection, 0.5 ml medium from the transfected cell plate was added into a 175-cm^2 flask containing 2×10^7 sf9 cells for further amplification of the recombinant baculovirus. The sf9 cells were collected 48 hours after infection.
(§2) To prepare the cell lysate, the sf9 cells expressing mmPDE10A7 were resuspended in cell lysis buffer containing Tris/HCl (pH 7.5) 50 mM, NaCl 10 mM, EGTA 5 mM, EDTA (pH 8.0) 1 mM, DTT 1 mM, Protease Inhibitor Cocktail (Roche) 1 tablet per 50 ml buffer. The cell suspension was then homogenized with a Polytron (PT2100) at speed 20 for 20 seconds on ice and centrifuged at 10,000×g for 20 minutes. The supernatant was then collected and stored at −80° C.
Then, the cassette was placed in 1 liter of fresh assay buffer and continued to dialyze for 2 more hours at 4° C. After the second dialysis, the cell lysate was recovered with a clean syringe and stored at −80° C.
An IMAP Assay kit (Molecular Device) was used to assess enzyme properties of mmPDE10A7. […] Both the enzyme and the substrates were diluted in the following assay buffer: Tris/HCl (pH 8.0) 50 mM, MgCl2 5 mM, 2-mercaptoethanol 4 mM, BSA 0.33 mg/ml. After incubation, the reaction was stopped by adding 20 μl of diluted (400-fold) binding reagents and was incubated for an hour at room temperature. Then, the plates were counted in Analyst GT (Molecular Device) for fluorescence polarization. The data were analyzed with SoftMax Pro. The high end (EC80 to EC100) of the linear range was served as the working enzyme concentration for compound inhibition assays.
Then, the reaction was stopped by adding 20 μl of diluted binding reagents and counted in Analyst GT for fluorescence polarization.

mmPDE10A7 [2] = biological target: T1, mmPDE10A7; test: Km determination with [3H]-cAMP/cAMP or [3H]-cGMP/cGMP; assay type: biochemical; settings: substrate of mmPDE10A7; 30 minutes at room temperature, pH 8.0
From the text: as §1, §2

[3] = fluorescein labeled cAMP substrate
[4] = fluorescein labeled cGMP substrate

Km (mmPDE10A7 [2]) [µM]	IC50 (mmPDE10A7 [1]; [3])	IC50 (mmPDE10A7 [1]; [4])	Compound	IC50 (mmPDE10A7 [1]; IC50, fluorescein labeled cAMP substrate) [nM]	IC50 (mmPDE10A7 [1]; IC50, fluorescein labeled cGMP substrate) [nM]
–	–	–	COc1ccc(Cc2nccc3cc(OC)c(OC)cc23)cc1OC [papaverine]	44	22
3.7	–	–	Nc1nc2c(ncn2[C@@H]2O[C@@H]3COP(=O)(O)O[C@H]3[C@H]2O)c(=O)[nH]1 [cGMP, cyclic guanosine 5′ monophosphate]	–	–
–	No inhibition	No inhibition	Cc1[nH]c(=O)c(C#N)cc1-c1ccncc1 [milrinone]	–	–
–	No inhibition	No inhibition	CCOC(=O)C1=C[C@]2(CC)CCCN3CCc4c(n1c1ccccc41)[C@@H]32 [vinpocetine]	–	–
